40 compounds from patent publication US20100179122A1 (priority 2005, published 2010) can be followed below.

This assay relates to acute HIV infection of T-lymphoid cells. Put plainly: Assay for inhibition of HIV replication (spread assay). As to conditions: Human immunodeficiency virus 1; inhibition of acute HIV infection of T-lymphoid cells; read-out: IC95, spread assay. It counts as cell-based. How it is done: An assay for the inhibition of acute HIV infection of T-lymphoid cells (alternatively referred to herein as the “spread assay”) was conducted in accordance with Vacca, J. P. et al., Proc. Natl. Acad. Sci. USA 1994, 91: 4096. […] The compounds set forth in the other Examples were not tested in the spread assay.

SMILES strings stand for the structures.

Take `O=C(COCc1ccccc1)Nc1[nH]c2ccc(Cl)cc2c1S(=O)(=O)c1ccccc1` [Example 6, 2-(benzyloxy)-N-[5-chloro-3-(phenylsulfonyl)-1H-indol-2-yl]acetamide]: the IC95 was less than 1000 nM.

As for `CCC(=O)Nc1[nH]c2ccc(Cl)cc2c1S(=O)(=O)c1ccccc1` [Example 7, N-[5-chloro-3-(phenylsulfonyl)-1H-indol-2-yl]propanamide], the IC95 is less than 1000 nM.

`O=C(Nc1[nH]c2ccc(Cl)cc2c1S(=O)(=O)c1ccccc1)C1CCC1` [Example 9, N-[5-chloro-3-(phenylsulfonyl)-1H-indol-2-yl]cyclobutanecarboxamide]: the concentration for an effect of 95% (IC95) is less than 1000 nM.

For `O=C(CNC1CC1)Nc1[nH]c2ccc(Cl)cc2c1S(=O)(=O)c1ccccc1` [Example 12, N^1-[5-chloro-3-(phenylsulfonyl)-1H-indol-2-yl]-N^2-cyclopropylglycinamide], the IC95 was less than 1000 nM.

For `O=C(Cc1ccc(F)cc1)Nc1[nH]c2ccc(Cl)cc2c1S(=O)(=O)c1ccccc1` [Example 16, N-[5-chloro-3-(phenylsulfonyl)-1H-indol-2-yl]-2-(4-fluorophenyl)acetamide], the concentration for an effect of 95% (IC95) was less than 1000 nM.

Turning to `O=C(CN1CCCC(F)(F)C1)Nc1[nH]c2ccc(Cl)cc2c1S(=O)(=O)c1ccccc1` [Example 17, N-[5-chloro-3-(phenylsulfonyl)-1H-indol-2-yl]-2-(3,3-difluoropiperidin-1-yl)acetamide], the IC95 was less than 1000 nM.

Consider `O=C(Nc1[nH]c2ccc(Cl)cc2c1S(=O)(=O)c1ccccc1)c1ccc(F)cc1F` [Example 18, N-[5-chloro-3-(phenylsulfonyl)-1H-indol-2-yl]-2,4-difluorobenzamide], for which the IC95 was less than 1000 nM.

As to `O=C(Nc1[nH]c2ccc(Cl)cc2c1S(=O)(=O)c1ccccc1)c1ccccc1F` [Example 19, N-[5-chloro-3-(phenylsulfonyl)-1H-indol-2-yl]-2-fluorobenzamide], the 95% effect concentration (IC95) was less than 1000 nM.

Take `O=C(Nc1[nH]c2ccc(Cl)cc2c1S(=O)(=O)c1ccccc1)c1ccncc1` [Example 20, N-[5-chloro-3-(phenylsulfonyl)-1H-indol-2-yl]isonicotinamide]: the IC95 is less than 1000 nM.

For the compound `Cc1ccoc1C(=O)Nc1[nH]c2ccc(Cl)cc2c1S(=O)(=O)c1ccccc1` [Example 24, N-[5-chloro-3-(phenylsulfonyl)-1H-indol-2-yl]-3-methyl-2-furamide], the 95% effect concentration (IC95) was less than 1000 nM.

Consider `O=C(Nc1[nH]c2ccc(Cl)cc2c1S(=O)(=O)c1ccccc1)c1cccc(F)c1` [Example 25, N-[5-chloro-3-(phenylsulfonyl)-1H-indol-2-yl]-3-fluorobenzamide], for which the IC95 was less than 1000 nM.

As to `CCOC(=O)CNC(=O)Nc1[nH]c2ccc(Cl)cc2c1S(=O)(=O)c1ccccc1` [Example 27, ethyl N-({[5-chloro-3-(phenylsulfonyl)-1H-indol-2-yl]amino}carbonyl)glycinate], the 95% effect concentration (IC95) was less than 1000 nM.

`O=C(Nc1[nH]c2ccc(Cl)cc2c1S(=O)(=O)c1ccccc1)c1ccccc1` [Example 28, N-[5-chloro-3-(phenylsulfonyl)-1H-indol-2-yl]benzamide]: the IC95 was less than 1000 nM.

For `O=C(Nc1cccc(F)c1)Nc1[nH]c2ccc(Cl)cc2c1S(=O)(=O)c1ccccc1` [Example 29, N-[5-chloro-3-(phenylsulfonyl)-1H-indol-2-yl]-N′-(3-fluorophenyl)urea], the IC95 is less than 1000 nM.

For the compound `COCC(=O)Nc1[nH]c2ccc(Cl)cc2c1S(=O)(=O)c1ccccc1` [Example 34, N-[5-chloro-3-(phenylsulfonyl)-1H-indol-2-yl]-2-methoxyacetamide], the IC95 is less than 1000 nM.

On to `O=C(Nc1ccccc1)Nc1[nH]c2ccc(Cl)cc2c1S(=O)(=O)c1ccccc1` [Example 35, N-[5-chloro-3-(phenylsulfonyl)-1H-indol-2-yl]-N′-phenylurea], for which the 95% effect concentration (IC95) was less than 1000 nM.

Take `O=C(Nc1ccccc1C(F)(F)F)Nc1[nH]c2ccc(Cl)cc2c1S(=O)(=O)c1ccccc1` [Example 41, N-[5-chloro-3-(phenylsulfonyl)-1H-indol-2-yl]-N′-[2-(trifluoromethyl)phenyl]urea]: the concentration for an effect of 95% (IC95) is less than 1000 nM.

As for `Cn1ccnc1CNCC(=O)Nc1[nH]c2ccc(Cl)cc2c1S(=O)(=O)c1ccccc1` [Example 42, N^1-[5-chloro-3-(phenylsulfonyl)-1H-indol-2-yl]-N^2-[(1-methyl-1H-imidazol-2-yl)methyl]glycinamide], the IC95 is less than 1000 nM.

Take `Cc1cccc(CNC(=O)Nc2[nH]c3ccc(Cl)cc3c2S(=O)(=O)c2ccccc2)c1` [Example 43, N-[5-chloro-3-(phenylsulfonyl)-1H-indol-2-yl]-N′-(3-methylbenzyl)urea]: the IC95 is less than 1000 nM.

As to `O=C(Nc1[nH]c2ccc(Cl)cc2c1S(=O)(=O)c1ccccc1)NC1CCCC1` [Example 44, N-[5-chloro-3-(phenylsulfonyl)-1H-indol-2-yl]-N′-cyclopentylurea], the IC95 was less than 1000 nM.

Consider `CC1(CNCC(=O)Nc2[nH]c3ccc(Cl)cc3c2S(=O)(=O)c2ccccc2)COC1` [Example 45, N^1-[5-chloro-3-(phenylsulfonyl)-1H-indol-2-yl]-N^2-[(3-methyloxetan-3-yl)methyl]glycinamide], for which the concentration for an effect of 95% (IC95) is less than 1000 nM.

Regarding `CCC(C)NC(=O)Nc1[nH]c2ccc(Cl)cc2c1S(=O)(=O)c1ccccc1` (stereo not shown) [Example 46, N-(sec-butyl)-N′-[5-chloro-3-(phenylsulfonyl)-1H-indol-2-yl]urea], the IC95 is less than 1000 nM.

As to `O=C(Nc1[nH]c2ccc(Cl)cc2c1S(=O)(=O)c1ccccc1)C1CCCC1` [Example 47, N-[5-chloro-3-(phenylsulfonyl)-1H-indol-2-yl]cyclopentanecarboxamide], the IC95 is less than 1000 nM.

With `CCCCNC(=O)Nc1[nH]c2ccc(Cl)cc2c1S(=O)(=O)c1ccccc1` [Example 48, N-butyl-N′-[5-chloro-3-(phenylsulfonyl)-1H-indol-2-yl]urea], the IC95 is less than 1000 nM.

On to `O=C(NCCc1ccccc1)Nc1[nH]c2ccc(Cl)cc2c1S(=O)(=O)c1ccccc1` [Example 49, N-[5-chloro-3-(phenylsulfonyl)-1H-indol-2-yl]-N′-(2-phenylethyl)urea], for which the IC95 fell in the range of 1000 to 10000 nM.

With `O=C(NCc1cccc(F)c1)Nc1[nH]c2ccc(Cl)cc2c1S(=O)(=O)c1ccccc1` [Example 50, N-[5-chloro-3-(phenylsulfonyl)-1H-indol-2-yl]-N′-(3-fluorobenzyl)urea], the concentration for an effect of 95% (IC95) is less than 1000 nM.

Take `COc1cccc(CNCC(=O)Nc2[nH]c3ccc(Cl)cc3c2S(=O)(=O)c2ccccc2)c1` [Example 51, N^1-[5-chloro-3-(phenylsulfonyl)-1H-indol-2-yl]-N^2-(3-methoxybenzyl)glycinamide]: the IC95 was less than 1000 nM.

On to `O=C(NCc1ccc(F)cc1)Nc1[nH]c2ccc(Cl)cc2c1S(=O)(=O)c1ccccc1` [Example 52, N-[5-chloro-3-(phenylsulfonyl)-1H-indol-2-yl]-N′-(4-fluorobenzyl)urea], for which the 95% effect concentration (IC95) was less than 1000 nM.

Turning to `CS(=O)(=O)N1CCN(CC(=O)Nc2[nH]c3ccc(Cl)cc3c2S(=O)(=O)c2ccccc2)CC1` [Example 53, N-[5-chloro-3-(phenylsulfonyl)-1H-indol-2-yl]-2-[4-(methylsulfonyl)piperazin-1-yl]acetamide], the concentration for an effect of 95% (IC95) was less than 1000 nM.

As to `O=C(CN1CCC(c2ccccn2)C1)Nc1[nH]c2ccc(Cl)cc2c1S(=O)(=O)c1ccccc1` (stereo not shown) [Example 56, N-[5-chloro-3-(phenylsulfonyl)-1H-indol-2-yl]-2-(3-pyridin-2-ylpyrrolidin-1-yl)acetamide], the IC95 is less than 1000 nM.

With `O=C(Nc1[nH]c2ccc(Cl)cc2c1S(=O)(=O)c1ccccc1)NC1CCCCC1` [Example 57, N-[5-chloro-3-(phenylsulfonyl)-1H-indol-2-yl]-N′-cyclohexylurea], the 95% effect concentration (IC95) is less than 1000 nM.

Turning to `O=C(Nc1[nH]c2ccc(Cl)cc2c1S(=O)(=O)c1ccccc1)NC1CC1c1ccccc1` (stereo not shown) [Example 58, N-[5-chloro-3-(phenylsulfonyl)-1H-indol-2-yl]-N′-(2-phenylcyclopropyl)urea], the IC95 was less than 1000 nM.

With `CC(NCC(=O)Nc1[nH]c2ccc(Cl)cc2c1S(=O)(=O)c1ccccc1)c1ccccc1` (stereo not shown) [Example 59, 2-{[5-chloro-3-(phenylsulfonyl)-1H-indol-2-yl]amino}-2-oxo-N-(1-phenylethyl)ethanamine], the concentration for an effect of 95% (IC95) was less than 1000 nM.

`O=C(Nc1[nH]c2ccc(Cl)cc2c1S(=O)(=O)c1ccccc1)C1CCCCC1` [Example 60, N-[5-chloro-3-(phenylsulfonyl)-1H-indol-2-yl]cyclohexanecarboxamide]: the concentration for an effect of 95% (IC95) is less than 1000 nM.

Consider `CN1CCN(CC(=O)Nc2[nH]c3ccc(Cl)cc3c2S(=O)(=O)c2ccccc2)CC1` [Example 61, N-[5-chloro-3-(phenylsulfonyl)-1H-indol-2-yl]-2-(4-methylpiperazin-1-yl)acetamide], for which the IC95 is less than 1000 nM.

For the compound `CC(C)NC(=O)Nc1[nH]c2ccc(Cl)cc2c1S(=O)(=O)c1ccccc1` [Example 62, N-[5-chloro-3-(phenylsulfonyl)-1H-indol-2-yl]-N′-isopropylurea], the IC95 is less than 1000 nM.

As to `O=C(COc1ccccc1)Nc1[nH]c2ccc(Cl)cc2c1S(=O)(=O)c1ccccc1` [Example 65, N-[5-chloro-3-(phenylsulfonyl)-1H-indol-2-yl]-2-phenoxyacetamide], the IC95 is less than 1000 nM.

For `O=C(Nc1cc(F)cc(F)c1)Nc1[nH]c2ccc(Cl)cc2c1S(=O)(=O)c1ccccc1` [Example 66, N-[5-chloro-3-(phenylsulfonyl)-1H-indol-2-yl]-N′-(3,5-difluorophenyl)urea], the concentration for an effect of 95% (IC95) was less than 1000 nM.

Regarding `O=C(Nc1cccc(C(F)(F)F)c1)Nc1[nH]c2ccc(Cl)cc2c1S(=O)(=O)c1ccccc1` [Example 68, N-[5-chloro-3-(phenylsulfonyl)-1H-indol-2-yl]-N′-[3-(trifluoromethyl)phenyl]urea], the IC95 was less than 1000 nM.

As for `O=C(NCc1c(F)cccc1Cl)Nc1[nH]c2ccc(Br)cc2c1S(=O)(=O)N1CCCC1` [Example 95, N-[5-bromo-3-(pyrrolidin-1-ylsulfonyl)-1H-indol-2-yl]-N′-(2-chloro-6-fluorobenzyl)urea], the 95% effect concentration (IC95) is less than 1000 nM.
